Source: patent US20120028837A1, “RAPID SCREEN FOR REPRODUCTIVE TOXICANTS” (PRESIDENT AND FELLOWS OF HARVARD COLLEGE, priority 2010, published 2012)

Experiments:
[1] = tested on: C. elegans germline; experiment: Size of mitotic zone of the germline (DAPI, phospho-histone H3 staining); conditions: in vivo
Text: In C. elegans, the germline is comprised of two main compartments, a mitotic region (the premeiotic tip), where nuclei are under the influence of the distal tip cell that maintains them in a proliferative state; and the meiotic region, where nuclei progress through the stages of Prophase I before being fertilized. The mitotic compartment of the worm gonad following BPA exposure was examined.
(§1) BPA bears endocrine disrupting activity in many developmental contexts including gonadal, brain and mammary gland development. BPA has affinity for multiple members of the estrogen receptors family, in particular BPA binds to the human estrogen receptor alpha (ERα) and ERβ as well as estrogen-related receptor gamma (ERR-γ) and in C. elegans with nuclear hormone receptor NHR-14 which also binds estrogen. […] Two hallmarks of exposure to BPA were examined, the decrease in the size of the proliferative zone and the condensation defects observed at diakinesis, as they are both highly penetrant and consistent phenotypes. […] Similarly to the experiments described above, the size of the mitotic zone was quantified as well as condensation defects at diakinesis.
Growing Conditions and Drug Exposures. Worms were cultured according to [23] at 20° C. on NGM plates without cholesterol. […] Exposure was carried from embryogenesis to adulthood by plating sodium hypochloride treated eggs onto drug and control plates and incubated at 20° C. for four days.
Antibody Staining. DAN staining, immunostaining and analysis of stained meiotic nuclei were performed as in [25] except for ATL-1 and AIR-2 antibodies were dissected gonads were subjected to a 1% fixation method as described in [27]. […] The secondary antibodies used were: Cy3 anti-rabbit, FITC anti-guinea-pig and FITC anti-mouse (Jackson Immunochemicals), each at 1:100, Stacks of 0.2 μm slices were captured using a Leica microscope, coupled to the DeltaVision fluorescence microscope system (Applied Precision). […]

[2] = tested on: C. elegans germline; conditions: in vivo
Text: Synapsis and recombination are tightly linked events during pachytene throughout various species, as it is only in the context of a fully assembled SC that crossover recombination can be completed. Indeed, in C. elegans, null mutants of SC components such as syp-1, syp-2, syp-3, syp-4 and him-3, increased levels of RAD-51 foci formation and delayed kinetics of foci turnover are observed during pachytene. Consequently, there is activation of the DNA damage checkpoint leading to increased germ cell apoptosis. Recombination is an essential and highly regulated process for the exchange of information that takes place during prophase I [18]. As nuclei exit mitosis and progress through meiosis, programmed meiotic DNA double strand breaks (DSBs) are formed and processed by several DNA repair proteins including RAD-51 [25, 48]. […] As unrepaired recombination intermediates can trigger a DNA-damage checkpoint during pachytene leading to increased germ cell apoptosis, the number of apoptotic nuclei following BPA exposure was measured by Syto-12 staining. […]
Quantification of Germ Cell Apoptosis. Apoptotic germline nuclei were scored in young adults between 20 and 24 hours post-L4 using SYTO-12 (Invitrogen) and were processed as described in [26]. […] Both GFP positive and negative worms (heterozygous and homozygous for cep-1 respectively) were analyzed following BPA exposure. […]

[3] = tested on: C. elegans diakinesis oocytes; experiment: Diakinesis oocyte analysis (chromosome condensation, SYP-1, AIR-2, pH3); conditions: for -1 oocytes showing lack of condensation: BPA
Text: Proper processing of recombination events is coupled with the formation of mature bivalents during the diakinesis stage such that in mutants where recombination intermediate processing is impaired, bivalent maturation is delayed.
Associated with the changes in chromatin morphology, the SC is disassembled during late diakinesis in a tightly controlled fashion. Accordingly, SC components, such as SYP-1, are detectable on the short arms of the bivalent in the −3 oocyte but are essentially absent from the bivalents of −2 and −1 oocytes. Thus, whether a delay in chromosome remodeling could correlate with an incomplete disassembly of SC components in late diakinesis was examined.
Accurate chromosome segregation at meiosis I is characterized by the carefully orchestrated loss of cohesion between homologs coupled with retention of cohesion between sister chromatids. This regulated process involves the targeting of the Aurora-B kinase AIR-2, a member of the chromosomal passenger complex, to the short arm of the bivalents in the −1 oocyte which has been proposed to lead to the removal the meiosis-specific cohesin REC-8 from the short arms of the bivalent. To examine whether these key steps in late meiotic prophase I might be impaired in BPA treated gonads, the localization of AIR-2 in the −1 oocytes was examined. […] Phospho histone H3 (pH3) is a canonical substrate for the activity of AIR-2 [59] and accordingly, although it accumulates in the −3 to −1 oocytes, it is only detected on the short arms of the bivalent in the −1 oocyte in the presence of AIR-2 [56, 57].
as §1
Antibody Staining. DAN staining, immunostaining and analysis of stained meiotic nuclei were performed as in [25] except for ATL-1 and AIR-2 antibodies were dissected gonads were subjected to a 1% fixation method as described in [27]. Antibodies were used at the following dilutions: rabbit α-SYP-1 (1:100), mouse α-RAD-51 (1:100), rabbit α-HTP-3 (1:500), guinea pig α-HIM-8 (1:100), rabbit α-ATL-1 (1:50), rabbit α-AIR-2 (1:100) and rabbit α-pCHK-1 (1:100). The secondary antibodies used were: Cy3 anti-rabbit, FITC anti-guinea-pig and FITC anti-mouse (Jackson Immunochemicals), each at 1:100, Stacks of 0.2 μm slices were captured using a Leica microscope, coupled to the DeltaVision fluorescence microscope system (Applied Precision). The images were projections approximately halfway through 3D data stacks of whole nuclei, except for diakinesis images which encompass entire nuclei.

[4] = tested on: C. elegans germline; experiment: ATL-1 and p-CHK1 immunostaining (DNA damage checkpoint); type: in vivo
Text: ATL-1, the C. elegans homologue of mammalian ATM and Rad3-related protein (ATR), accumulates to sites of persistent DSBs during meiosis, and together with CLK-2, acts as a sensor of germ-cell DNA damage which leads to phosphorylation of the checkpoint kinase CHK1 and ultimately apoptosis. To further examine the progression of DSB repair, the levels of ATL-1 and phosphorylated CHK1 (p-CHK1) were monitored throughout the gonad following exposure to BPA.

## CC(C)(c1ccc(O)cc1)c1ccc(O)cc1 [BPA, Bisphenol A]
[1]
  size of the premeiotic tip a day later: No significant increase
[2]
  apoptotic levels in a cep-1 mutant background: reduced to normal levels
  number of apoptotic nuclei compared to vehicle: two to three-fold increase
[3]; BPA exposed gonads
  gonads with SYP-1 staining on short arm of bivalent in the -1 oocyte: 10%
[3]; BPA treated
  -1 oocytes with pH3 staining localized to the bivalents: 14%
[3]; BPA treated gonads
  gonads in which AIR-2 was not detected on the bivalents of -1 oocytes: 100%
  gonads in which the -1 oocyte did not show normal chromosome condensation: 23%
  gonads with residual SYP-1 staining on short arm of bivalent in the -2 oocyte: 80%
[3]; BPA treated oocytes
  kinetics of pH3 nuclear accumulation in diakinesis oocytes: delay in the kinetics of pH3 nuclear accumulation
[3]; one day post-L4
  -1 oocytes showing lack of condensation: 17%
[3]; three days post-L4
  -1 oocytes showing lack of condensation: 28%
[3]; two days post-L4
  -1 oocytes showing lack of condensation: 24%
[3]; all BPA gonads examined, from -1, -2 or -3 oocyte
  delay in bivalent maturation judged by nuclear morphology: some level of delay in bivalent maturation
[4]; BPA exposure
  elevated RAD-51, ATL-1 or p-CHK1 staining in the mitotic germline nuclei: not observed
[4]; BPA treated vs control
  levels of ATL-1 signal on pachytene nuclei: significant increase
  levels of p-CHK1 signal on pachytene nuclei: significant increase
